Patent US9139842B2, “Methods and compositions for targeting sequences of interest to the chloroplast” (PIONEER HI-BRED INTERNATIONAL, INC., priority 2010, dated 2015)
Substitutions are numbered along the chain they refer to.

Tests used:
[1] = tested on: G. max leaf cell chloroplasts; test: Transient expression of Gm HPPD-AcGFP fusion proteins in soy leaf discs; format: cell-based, Glycine max
Source text: Transient expression experiments indicate that the long HPPD protein (SEQ ID NO: 57) is imported to chloroplasts, while the short protein (SEQ ID NO: 59) remains in the cytosol. Plant expression cassettes were constructed fusing portions of the N terminus of Gm HPPD to an Aequorea coerulescens green fluorescent protein 1 (AcGFP1). One fusion contained amino acid residues 1-86 of the long Gm HPPD protein. Another contained residues 1-44 of the short HPPD protein (this corresponds to residues […] of the long protein). These cassettes were incorporated into binary vectors which also contained an untargeted DsRed2 expression cassette and introduced into A. tumefaciens strain AGL 1 and then used to infect leaf discs of G. max as described in Example 3 of U.S. Utility application Ser. No. 13/209,017, now issued U.S. Pat. No. 8,993,837, entitled “Chimeric Promoter and Methods of Use”, filed concurrently herewith and herein incorporated by reference in its entirety.

maize cell chloroplasts = test: Agro-infiltration of maize leaves with G. max HPPD N-terminus AcGFP1 fusions; format: cell-based, Zea mays; conditions: 4-week old maize seedlings, three days after infiltration
Source text: Vectors were constructed in which a portion of the gene coding for the G. max HPPD N-terminus was fused to a gene encoding Aequorea coerulescens green fluorescent protein 1 (AcGFP1) and inserted into a binary expression vector under control of the Arabidopsis Ubiquitin 10 promoter (Norris et al. (1993) Plant Mol. Biol. 21, 895-906) and terminated with the Glycine max Kunitz trypsin inhibitor 3 terminator region (NCBI accession S45092). Both genes were between left and right border sequences from Agrobacterium. One fusion contained amino acid residues 1-86 of the long Gm HPPD protein (SEQ ID NO:57). […]
A positive control vector was identical except that the AcGFP1 coding region was fused to the 6H1 synthetic chloroplast targeting peptide (U.S. Pat. No. 7,345,143), while a negative control was AcGFP1 with no targeting sequence. […] Agro-infiltration is a well described method (Kapila et. al. (1997) Plant Science, 122:101-108) of introducing an Agrobacterium cell suspension to plant cells of intact tissues so that reproducible infection and subsequent plant trans-gene expression may be measured or studied.
Leaves of 4-week old maize seedlings were infiltrated with the Agrobacterium, and examined by fluorescence microscopy three days later (Nikon Eclipse 80i, Narrow band-pass GFP filter set). […]

sorghum leaves plastids = test: Agro-infiltration of sorghum leaves with DsRed fusions; format: cell-based
maize leaf chloroplasts = test: Agro-infiltration of maize leaves with DsRed2 fusions, fluorescence microscopy; format: cell-based, Zea mays; conditions: Example 16, assayed as described in Example 4
Source text: A vector was constructed in which the portion of the maize HPPD (SEQ ID NO: 9) gene coding for the N-terminal 50 amino acids was fused to the gene coding for Discosoma sp. red fluorescence protein 2 (DsRed2) and inserted into a binary expression vector under control of the maize Rubisco activase promoter (Liu et al. (1996) Plant Physiol. 112(1): 43-51) and terminated with the Solanum tuberosum proteinase inhibitor II (pinII) terminator region (An et al. (1989) Plant Cell 1:115-122) with a hygromycin selection cassette. Both genes are between left and right border sequences from Agrobacterium.
A positive control vector was identical to the vector having the N-terminal 50 amino acids of maize HPPD described above except that the HPPD CTP was removed and the DsRed2 insert was fused to the chloroplast targeting peptide of Zea maize rubisco activase, while a negative control was DsRed2 with no targeting sequence. […] Agro-infiltration is a well described method (Kapila et. al. (1997) Plant Science, 122:101-108) of introducing an Agrobacterium cell suspension to plant cells of intact tissues so that reproducible infection and subsequent plant derived trans-gene expression may be measured or studied.
Leaves of 3-week old maize seedlings were infiltrated with the Agrobacterium, and examined by fluorescence microscopy two days later (Nikon Eclipse 80i, DsRed filter set). […]

[2] = tested on: stably transformed soybean cells; test: Immunogold localization of maize HPPD in stably transformed soybean leaf; format: cell-based, Glycine max; conditions: anti-maize HPPD antibody
Source text: Polyclonal antibodies were raised in rabbits against recombinant maize HPPD protein purified by nickel chelate affinity chromatography. Anti-HPPD antibodies were purified from serum by affinity chromatography on immobilized maize HPPD, and further purified by passage through a column of immobilized Rubisco, to remove a small fraction of antibodies that reacted with both HPPD and Rubisco. Leaf punches taken form stably transformed soybean plants expressing a gene encoding the maize HPPD protein (SEQ ID NO: 10) driven by an SCP1 synthetic promoter (U.S. Pat. No. 6,072,050) were fixed in 2% paraformaldehyde, 0.25% glutaraldehyde in 100 mM Na phosphate buffer, pH 7.0, for 3 hours at room temperature, dehydrated by passage through progressively higher concentrations of ethanol, embedded in LR White resin and cured at 55° C. for 48 hours. Sections (0.9 microns) were transferred onto Excell Adhesion glass microscope slides (Electron Microscopy Sciences). Immunolocalization was performed with the primary antibody being the double-purified anti-maize HPPD (1:200) and the secondary antibody goat anti-rabbit F(ab′) conjugated with gold particles (Aurion ultrasmall gold). Gold labeling was followed by silver enhancement (Aurion R-GENT SE-EM). […] Material was analyzed with a YAG detector for backscatter signal in a Hitachi 54800 scanning electron microscope. […]

maize HPPD = test: HPPD activity assay of maize HPPD variants expressed in E. coli; format: biochemical, Zea mays; conditions: N-terminal truncated variants of maize wild-type HPPD, single measurement
Source text: Organellar targeting sequences are usually cleaved after the peptide enters the organelle. Previous investigators (Fritze I et al. (2004) Plant Physiology 134:1388-1400; Yang C et al. (2004) Biochemistry 43: 10414-10423) have shown that native mature maize HPPD begins at either ala17 or ala23. Variants of the wild-type maize HPPD protein coding region were created with various lengths of the amino terminus removed. The sequences were expressed in E. coli and tested for activity and stability. In each case a methionine start codon was added to the truncated sequence. Proteins were designated by the position of their N-terminal amino acid (all alanines) as in SEQ ID NO: 9. All N-terminal truncated proteins retained the HPPD activity. […] Assaying HPPD activity was carried out as described in Example 1 of Provisional Application 61/401,456, filed Aug. 13, 2010, Compositions and Methods Comprising Sequences having Hydroxyphenylpyruvate Dioxygenase (HPPD) Activity, herein incorporated by reference in it entirety.

**Q.** How did the “AcGFP green fluorescence localization” value [1] turn out when “residues 42-86: residues 1-44 of the short Gm HPPD protein (42-86 of the long protein) fused to AcGFP1” was run?
**A.** The value was “green fluorescence is visible only in the cytoplasm”.

**Q.** And the “AcGFP marker protein localization” value (maize cell chloroplasts)?
**A.** Its value is “delivered the protein to the cytosol”.

**Q.** Which results are given for “MPPTPTTAAATGAGAAAAVTPEHAAFRLVGHRRFVRFNPRSDRFHTLAFHHVE [53 amino acid consensus sequence]”?
**A.** DsRed reporter localization (sorghum leaves plastids): efficiently targeted the DsRed reporter protein to plastids; DsRed localization (maize leaf chloroplasts): effectively targeted DsRed to maize plastids

B1: maize HPPD: Maize WT HPPD (from WO1997049816 SEQ ID NO: 11), SEQ ID NO: 10 (protein)
chain: MPPTPTAAAAGAAVAAASAAEQAAFRLVGHRNFVRFNPRSDRFHTLAFHHVELWCADAASAAGRFSFGLGAPLAARSDLSTGNSAHASLLLRSGSLSFLFTAPYAHGADAATAALPSFSAAAARRFAADHGLAVRAVALRVADAEDAFRASVAAGARPAFGPVDLGRGFRLAEVELYGDVVLRYVSYPDGAAGEPFLPGFEGVASPGAADYGLSRFDHIVGNVPELAPAAAYFAGFTGFHEFAEFTTEDVGTAESGLNSMVLANNSENVLLPLNEPVHGTKRRSQIQTFLDHHGGPGVQHMALASDDVLRTLREMQARSAMGGFEFMAPPTSDYYDGVRRRAGDVLTEAQIKECQELGVLVDRDDQGVLLQIFTKPVGDRPTLFLEIIQRIGCMEKDEKGQEYQKGGCGGFGKGNFSQLFKSIEDYEKSLEAKQAAAAAAAQGS
modifications: Zea mays
**Q.** B1 was tested. Which gold labeling localization [2] did it give?
**A.** Its gold labeling localization is “mainly in cytosol and nuclei, but also in chloroplasts”.

B2: Maize wt: wild-type maize HPPD protein (SEQ ID NO: 9) expressed in E. coli (protein)
chain: B1 chain with P2G
modifications: Zea mays
**Q.** For B2, which “kcat” value (maize HPPD) is on record?
**A.** Its value is 2.77 s⁻¹.
